# Literature values as cited in US20090181887A1, “USE OF A GLP-1 MOLECULE FOR TREATMENT OF BILIARY DYSKINESIA AND/OR BILIARY PAIN/DISCOMFORT” (Gastrotech Pharma A/S, priority 2005, published 2009).
# Where no end group is shown, it is not given here.
# Details: in man; Wettergren et al, 1993; Gutniak et al, 1996
substance,measurement,value
"glucagon-like peptide-1 (HAEGTFTSDVSSYLEGQAAKEFIAWLVKGR-NH2; ends and bridges not checked; UniProt P01275 98-127, looked up) [GLP-1, gastrointestinal peptide hormone; natural forms GLP-1 (7-36)amide and GLP-1 (7-37)]",slowing of gastric emptying,50%
